Here are results for eight molecules from ChEMBL document CHEMBL2073895, “Charged amino acids in the transmembrane domains are involved in the determination of the substrate specificity of rat Mrp2” (Mol Pharmacol, 2001).

One may read the IC50 as the midpoint of a concentration-inhibition curve. The low end stands for greater potency in that assay, the high end for weaker potency in that assay. A word on the Km: it is the substrate concentration at which the rate is half of its maximum.

What all share (type): functional, cell membranes, Membrane vesicle
Series [1] addresses T1, ATP-binding cassette sub-family C member 2 (Rattus norvegicus, UniProt Q63120). As to the kind of experiment: TP_TRANSPORTER: inhibition of E217betaG uptake (E217betaG: 0.055 uM) in membrane vesicles from Mrp2-expressing Sf9 cells.
Series [2] deals with T1, ATP-binding cassette sub-family C member 2. The experiment in a line: TP_TRANSPORTER: inhibition of DNP-SG uptake (DNP-SG: 0.05 uM) in membrane vesicles from Mrp2-expressing Sf9 cells.
Substrate in series [3]: C[C@]12CC[C@@H]3c4ccc(O)cc4CC[C@H]3[C@@H]1CC[C@@H]2O[C@@H]1O[C@H](C(=O)O)[C@@H](O)[C@H](O)[C@H]1O
The experiment in a line: TP_TRANSPORTER: uptake in membrane vesicles from Mrp2-expressing Sf9 cells.

In series [1], `N[C@@H](CCC(=O)N[C@H](CSc1ccc([N+](=O)[O-])cc1[N+](=O)[O-])C(=O)NCC(=O)O)C(=O)O` came in with an IC50 of 19.3 µM.
In the case of `C[C@]12CC[C@@H]3c4ccc(O)cc4CC[C@H]3[C@@H]1CC[C@@H]2O[C@@H]1O[C@H](C(=O)O)[C@@H](O)[C@H](O)[C@H]1O` [ESTRADIOL 17B GLUCURONIDE], the IC50 in series [2] stood at 13.3 µM.
`CCCCC/C=C\C\C=C/C=C/C=C/[C@@H](SC[C@@H](NC(=O)CC[C@H](N)C(=O)O)C(=O)NCC(=O)O)[C@@H](O)CCCC(=O)O` [LEUKOTRIEN C4]: in series [1], the IC50 was found to be 0.65 µM.
`CCCCC/C=C\C\C=C/C=C/C=C/[C@@H](SC[C@H](N)C(=O)O)[C@@H](O)CCCC(=O)O` [LEUKOTRIEN E4] displayed an IC50 in series [1] of 9.83 µM.
Same read-out and setting: as for `CCCCC/C=C\C\C=C/C=C/C=C/[C@@H](SC[C@H](NC(=O)CC[C@@H](N)C(=O)O)C(=O)O)[C@@H](O)CCCC(=O)O` [LEUKOTRIEN F4], the figure is 10 µM; as for `CCCCC/C=C\C\C=C/C=C/C=C/[C@@H](SC[C@H](N)C(=O)NCC(=O)O)[C@@H](O)CCCC(=O)O` [LEUKOTRIENE D4], 5.48 µM; as for `CN(C)C(=O)CCSC(SCCC(=O)O)c1cccc(/C=C/c2ccc3ccc(Cl)cc3n2)c1` (stereo not drawn) [MK-571], 2.62 µM.

B1: ATP-binding cassette sub-family C member 2 (Rattus norvegicus) (protein)
chain: MDKFCNSTFWDLSLLESPEADLPLCFEQTVLVWIPLGFLWLLAPWQLYSVYRSRTKRSSITKFYLAKQVFVVFLLILAAIDLSLALTEDTGQATVPPVRYTNPILYLCTWLLVLAVQHSRQWCVRKNSWFLSLFWILSVLCGVFQFQTLIRALLKDSKSNMAYSYLFFVSYGFQIVLLILTAFSGPSDSTQTPSVTASFLSSITFSWYDRTVLKGYKHPLTLEDVWDIDEGFKTRSVTSKFEAAMTKDLQKARQAFQRRLQKSQRKPEATLHGLNKKQSQSQDVLVLEEAKKKSEKTTKDYPKSWLIKSLFKTFHVVILKSFILKLIHDLLVFLNPQLLKLLIGFVKSSNSYVWFGYICAILMFAVTLIQSFCLQSYFQHCFVLGMCVRTTVMSSIYKKALTLSNLARKQYTIGETVNLMSVDSQKLMDATNYMQLVWSSVIQITLSIFFLWRELGPSILAGVGVMVLLIPVNGVLATKIRNIQVQNMKNKDKRLKIMNEILSGIKILKYFAWEPSFQEQVQGIRKKELKNLLRFGQLQSLLIFILQITPILVSVVTFSVYVLVDSANVLNAEKAFTSITLFNILRFPLSMLPMVTSSILQASVSVDRLERYLGGDDLDTSAIRRVSNFDKAVKFSEASFTWDPDLEATIQDVNLDIKPGQLVAVVGTVGSGKSSLVSAMLGEMENVHGHITIQGSTAYVPQQSWIQNGTIKDNILFGSEYNEKKYQQVLKACALLPDLEILPGGDMAEIGEKGINLSGGQKQRVSLARAAYQDADIYILDDPLSAVDAHVGKHIFNKVVGPNGLLAGKTRIFVTHGIHFLPQVDEIVVLGKGTILEKGSYRDLLDKKGVFARNWKTFMKHSGPEGEATVNNDSEAEDDDDGLIPTMEEIPEDAASLAMRRENSLRRTLSRSSRSSSRRGKSLKNSLKIKNVNVLKEKEKEVEGQKLIKKEFVETGKVKFSIYLKYLQAVGWWSILFIILFYGLNNVAFIGSNLWLSAWTSDSDNLNGTNNSSSHRDMRIGVFGALGLAQGICLLISTLWSIYACRNASKALHGQLLTNILRAPMRFFDTTPTGRIVNRFSGDISTVDDLLPQTLRSWMMCFFGIAGTLVMICMATPVFAIIIIPLSILYISVQVFYVATSRQLRRLDSVTKSPIYSHFSETVTGLPIIRAFEHQQRFLAWNEKQIDINQKCVFSWITSNRWLAIRLELVGNLVVFCSALLLVIYRKTLTGDVVGFVLSNALNITQTLNWLVRMTSEAETNIVAVERISEYINVENEAPWVTDKRPPADWPRHGEIQFNNYQVRYRPELDLVLKGITCNIKSGEKVGVVGRTGAGKSSLTNCLFRILESAGGQIIIDGIDVASIGLHDLRERLTIIPQDPILFSGSLRMNLDPFNKYSDEEVWRALELAHLRSFVSGLQLGLLSEVTEGGDNLSIGQRQLLCLGRAVLRKSKILVLDEATAAVDLETDSLIQTTIRKEFSQCTVITIAHRLHTIMDSDKIMVLDNGKIVEYGSPEELLSNRGSFYLMAKEAGIENVNHTEL
On to B1, for which the Km in series [3] is 3.91 µM.
